# Test results: a melting point compilation (Tetko et al.)
row,melting point [°C],Structure (SMILES)
1,230 to 233,NNC(=O)c1csc(-c2cccc(Cl)c2Cl)n1
2,228,COS(=O)(=O)c1cc([N+](=O)[O-])ccc1C#Cc1ccc([N+](=O)[O-])cc1S(=O)(=O)OC
3,73 to 75,NC(=O)CCOC1CCN(Cc2ccccc2)CC1
4,143 to 146,Brc1ccc(-c2ccc(Br)s2)s1
5,231 to 232,CC(=C\OC(=O)c1ccccc1)/C(C)=N/OC(=O)c1ccccc1
6,49 to 51,OCc1ccc(-c2ccccn2)cc1
7,150 to 151,O=C(O)C1CC(=O)N(Cc2ccc(F)cc2)C1 (stereo not given)
8,112 to 117,O=C(Cc1ccccc1)c1ccc(O)cc1O
9,24,O=C(S)c1ccccc1
10,235,Cc1cc(C(F)(F)F)n2nc(N)c(/N=N/c3ccccc3[N+](=O)[O-])c2n1
11,194 to 199,O=C(O)c1cccc(-n2ccnc2)c1
12,138 to 139,C=CCNC(=S)Nc1sc2c(c1C(=O)OCC)CCN(Cc1ccccc1)C2
13,45.5,CCCCOc1ccc(OCCCC)cc1
14,148,O=C(CCCN1CCC(O)(c2ccc(Cl)cc2)CC1)c1ccc(F)cc1
15,184 to 186,Nc1ccc2c(c1)CCC2=O
16,73 to 77,c1ccc(Oc2ccc(Oc3ccccc3)cc2)cc1
17,30 to 32,CCCCCCCCOc1ccc(C(C)=O)cc1
18,212,CC(=O)CC(=O)Nc1ccc(-c2ccc(NC(=O)CC(C)=O)c(C)c2)cc1C
19,104 to 107,FC(F)(F)c1cc(Cl)c2cc(Cl)ccc2n1
20,220,O=C(O)c1cc(-c2ccco2)[nH]n1
21,184 to 185,C/C(=N\c1ccccc1)c1c(O)c2ccccc2n(-c2ccccc2)c1=O
22,126 to 127,CCc1c(C)nc(NC(=O)NS(=O)(=O)c2cccs2)nc1Cl
23,235 to 237,CC(=O)Nc1ccccc1CCCCc1ccccc1NC(C)=O
24,82,C(C#CCOc1ccccc1)#CCOc1ccccc1

row,melting point [°C],Structure (SMILES)
1,183 to 185,Nc1cnc2ccccc2c1N
2,124 to 131,N#CC(c1ccc(Cl)nn1)c1c(Cl)cccc1Cl (stereo not given)
3,180,CC(C)(C)N(NC(=O)c1ccccc1)C(=O)c1cccc(Cl)c1
4,60,C=CC1CNCCC1CCC(=O)c1ccnc2ccc(OC)cc12 (stereo not given)
5,69,N#Cc1cc(S(=O)(=O)Cl)ccc1F
6,-12,CCCCCC(c1ccccc1)c1ccccc1
7,108,NC(=C(N)c1ccccc1)c1ccccc1
8,55.5,Cc1cc(C)c2ccccc2c1C
9,47,O=Cc1c(F)ccc(F)c1Cl
10,13,CCCCOC(=O)C(C)Oc1ccc(Oc2ccc(C(F)(F)F)cn2)cc1 (stereo not given)
11,141 to 143,CC(=O)Nc1ccc(C(F)(F)F)cc1N
12,108,CC1COc2ccccc2N1C(=O)C(Cl)Cl (stereo not given)
13,-8,C1=Cc2ccccc2CC1
14,114,CCN(CC)CCOC(=O)C(c1ccccc1)c1ccccc1
15,61,O=Cc1ccc(Br)cc1F
16,205 to 208,CCN(CC)c1ccc2cc(-c3nc4ccccc4s3)c(=O)oc2c1
17,138 to 140,C[Si](c1ccccc1)(c1ccccc1)[Si](C)(c1ccccc1)c1ccccc1
18,69.5,S=C=Nc1ccc(Cl)c(Cl)c1Cl
19,104 to 106,O=C(CCl)Nc1ccc(Oc2ccccc2)cc1
20,143,O=C(c1ccc(C(=O)C(Cl)Cl)cc1)C(Cl)Cl
21,239 to 241,O=C1c2ccccc2C(=O)N1c1n[nH]c2ccccc12
22,243 to 247,N#Cc1ccc(C=NNC(N)=S)cc1
23,168,Cc1ncccc1O
24,185 to 187,Cc1nc(-c2ccccc2)ncc1C(=O)NN

row,melting point [°C],Structure (SMILES)
1,198,CCOC(=O)CNC(=O)c1cn(CC)c2nc(C)ccc2c1=O
2,98,Cc1ccccc1NC(=O)c1cncc(Cl)n1
3,89 to 93,COc1ccc(-c2csnn2)cc1
4,139 to 142,COC(=O)C(C)(N)Cc1c[nH]c2ccccc12 (stereo not given)
5,-52,COc1cccc(OC)c1
6,26,CCC(=O)c1cc(F)cc(F)c1
7,177 to 179,O=C(O)CN(CC(=O)O)c1ccccc1OCCOc1ccccc1N(CC(=O)O)CC(=O)O
8,84,O=S(O)c1ccccc1
9,29,CCCCCCCCCCCCCCCCCCC(C)c1ccccc1 (stereo not given)
10,287 to 289,O=C1c2ccccc2C(=O)c2c1ccc(O)c2O
11,68 to 72,CCOc1c(NCc2ccccc2)c(=O)c1=O
12,169 to 170,Nc1ccc(S(=O)(=O)N2CCCCC2)cc1
13,78,CC(C)c1ccc(O)c(O)c1
14,81,COC(=O)c1cc([N+](=O)[O-])ccc1Br
15,98,C#Cc1ccc2nccnc2c1
16,165 to 167,O=C(Nc1ccccc1)C(C(F)(F)F)C(F)(F)F
17,134,CCOC(=O)c1ccc(O)c(O)c1
18,265,CN1CC(c2ccccc2)(c2ccccc2)C(=O)c2c(cc(-c3ccccc3)c3ccccc23)C1=O
19,115,Ic1c(-c2ccccc2)cccc1-c1ccccc1
20,27,Cc1cccc(Cl)c1I
21,48,COc1ccc(CC#N)cc1F
22,170,CCCCOC(=O)C1=C(C)NC(=O)NC1c1ccco1 (stereo not given)
23,173,C[Si]1(C)Oc2ccc3ccccc3c2-c2c(ccc3ccccc23)O[Si](C)(C)O1

# Second part, the compound before the results:
row,Structure (SMILES),melting point [°C]
1,S=C1NCCN1,203
2,O=C(O)c1coc2c1C(=O)CCC2,140 to 143
3,CC(C)CCSCCC(C)C,-74.6
4,N#Cc1ccnc(N)c1,150
5,C1OCC2(CO1)COCOC2,48.3
6,C[Si](C)(Cl)O[Si](C)(C)Cl,-37.5
7,CN(c1c(F)c(F)c(F)c(F)c1F)N(O)O,39.5
8,O=[N+]([O-])c1cccc(Cl)c1O,70
9,NC(=O)C=CC(=O)O,172
10,CCCCc1c(C)nc(N)nc1O,273 to 275
11,Nc1ccc2c(c1)OCO2,38 to 43
12,FC(F)C(F)F,-89
13,CCC(C)(N)P(=O)(O)O (stereo not given),268 to 272
14,CCC1(CC)C(=O)CCNC1=O,102
15,O=P(O)(O)OCC(O)CO (stereo not given),-25
16,O=C1C(=Cc2ccc(N(CCCl)CCCl)cc2)SC(=S)N1CN(CCCl)CCCl,106
17,Cc1sc2c(c1C)C(=O)CS(=O)(=O)N2C,122 to 124
18,O=C1CCCO1,-43.3
19,Clc1cn2ccsc2n1,85
20,C1CCC(C2CCCCC2)CC1,3 to 4
21,COC(=O)C1CC(=O)CN1C(=O)OC(C)(C)C (stereo not given),38
22,Nc1cc(Cl)c(C(F)(F)F)cc1[N+](=O)[O-],113 to 114

row,Structure (SMILES),melting point [°C]
1,Brc1ccc(Br)nc1,94
2,COc1cc(I)c(OC)cc1Cl,115 to 116
3,CC(C)(C)[N+](=O)[O-],26.2
4,Oc1c(F)cc(F)cc1F,49.5
5,Cc1n[nH]c(S)n1,275 to 277
6,CC1C(=O)CCC2C1(C)CCC1C2(C)CCC2(C)C3CC(C)(C)CCC3(C)CCC12C (stereo not given),263
7,C1COC1,-97
8,CCCCCCCCCCCCCCCCCCCCBr,37.5
9,CCOC(=O)C12CCC(C(=O)OCC)(CC1=O)C(=O)C2,111 to 113
10,CCCCC(N)P(=O)(O)O (stereo not given),267 to 269
11,COc1cc2c(cc1O)C=NCC2,187 to 191
12,ON=Cc1c[nH]cn1,182
13,O=C(Cl)c1cc([N+](=O)[O-])cc([N+](=O)[O-])c1,74
14,CNC(=C[N+](=O)[O-])NCCSCc1csc(CN(C)C)n1,203
15,CCOC(=O)[C@H]1CCC(=O)N1,49 to 53
16,CCCOCCC,-122
17,CC1=NNC(=O)C1(Br)Br,131
18,COC1C(O)C(C)OC(OC2C(Oc3cccc4c(O)c5c(=O)oc6ccc(C)c7c(=O)oc(c34)c5c67)OC(C)C(O)C2O)C1O (stereo not given),185
19,OCC1C2C=CC(C2)C1CO (stereo not given),85 to 85.5
20,CC(=O)OCC(COC(C)=O)OC(C)=O,78
21,O=C(O)[C@H]1[C@H](C(=O)O)[C@H]2C=C[C@@H]1C2,185
22,FC(F)(F)c1cc(C(F)(F)F)[nH]n1,82 to 84

row,Structure (SMILES),melting point [°C]
1,BrCCC(Br)CBr (stereo not given),-18
2,CC(O)(P(=O)(O)O)P(=O)(O)O,199
3,Clc1ccnc(Cl)n1,60
4,CC(C)=NNC(=O)c1cc(C)on1,244 to 246
5,Oc1ccccc1-c1ccccc1O,109
6,CCCCNC(=O)OC#CCI,66
7,O=c1c(I)cn(CC(O)CO)cc1I (stereo not given),161
8,O=P(O)(O)CCP(=O)(O)O,218
9,CN1CCN(C(=O)OC2c3nccnc3C(=O)N2c2ccc(Cl)cn2)CC1 (stereo not given),178
10,NCCc1c[nH]cn1,86
11,CCCCCC(O)C=CC1C(O)CC(=O)C1CC=CCCCC(=O)O (stereo not given),67
12,CCNC(=S)NN,80 to 85
13,Nc1c(Cl)cc(OC(F)(F)F)cc1Cl,32
14,CC(=O)NC(C)C(=O)O (racemic),137
15,O=C(NC(=O)c1c(F)cccc1F)Nc1cc(Cl)c(OC(F)(F)C(F)C(F)(F)F)cc1Cl (stereo not given),169
16,O=C(O)c1cc([N+](=O)[O-])cc([N+](=O)[O-])c1Cl,199
17,O=C1C(=O)C(Cl)=C(Cl)C(Cl)=C1Cl,125 to 129
18,CCCN(CCC)C(=O)Cc1c(-c2ccc(Cl)cc2)nc2ccc(Cl)cn12,140
19,COC(=O)CCCCCCC(=O)OC,-3.1
20,C1CCC(CCCC2CCCCC2)CC1,-17
